Values after ≈ are worked out from the molar mass of the structure shown. Active and inactive are the calls of the source. The calls are words filed in the database; no cut-off is given here.
Assays:
[1] = Solubility of the compound in DMSO; type: physicochemical
Staphylococcus aureus [2] = assay: Anti-bacterial activity against methicillin-resistant Staphylococcus aureus ATCC 43300 measured after 18 hrs; type: functional; conditions: ATCC 43300, 18 h
Staphylococcus aureus [3] = assay: Anti-bacterial activity against methicillin/oxacillin-resistant Staphylococcus aureus ATCC 43300 at 32 ug/ml measured after 18 hrs; type: functional

| solubility [1] | Structure (SMILES) | Activity (Staphylococcus aureus [3]) | other results |
| --- | --- | --- | --- |
| Insoluble | Cc1ccc(C[C@@]2(C(N)=O)CCC[C@]3(C)c4ccc(C(C)C)cc4CC[C@@H]23)cc1 | – | – |
| Insoluble | COc1ccc(C[C@@]2(C(N)=O)CCC[C@]3(C)c4ccc(C(C)C)cc4CC[C@@H]23)cc1 | – | – |
| – | CN[C@H](CC(C)C)C(=O)N[C@H]1C(=O)N[C@@H](CC(N)=O)C(=O)N[C@H]2C(=O)N[C@H]3C(=O)N[C@H](C(=O)N[C@H](C(=O)O)c4cc(O)cc(O)c4-c4cc3ccc4O)[C@H](O)c3ccc(c(Cl)c3)Oc3cc2cc(c3O[C@@H]2O[C@H](CO)[C@@H](O)[C@H](O)[C@H]2O[C@H]2C[C@](C)(N)[C@H](O)[C@H](C)O2)Oc2ccc(cc2Cl)[C@H]1O [VANCOMYCIN] | – | MIC80 (Staphylococcus aureus [2]): 1 µg/mL (≈ 0.69 µM) |
| – | CC(C)c1ccc2c(c1)CC[C@H]1[C@](Cc3ccc(C(F)(F)F)cc3)(C(=O)O)CCC[C@]21C | Active | – |
| – | Cc1ccc(C[C@@]2(C(=O)O)CCC[C@]3(C)c4ccc(C(C)C)cc4CC[C@@H]23)cc1 | Active | – |
| Insoluble | CC(C)c1ccc2c(c1)CC[C@H]1[C@](Cc3ccc(C(F)(F)F)cc3)(C(N)=O)CCC[C@]21C | – | – |
| – | COc1ccc(C[C@@]2(C(=O)O)CCC[C@]3(C)c4ccc(C(C)C)cc4CC[C@@H]23)cc1 | Active | – |
| – | CC(C)c1ccc2c(c1)CC[C@H]1[C@](Cc3ccc(C(=O)O)cc3)(C(N)=O)CCC[C@]21C | – | MIC80 (Staphylococcus aureus [2]): 32 µg/mL (≈ 76.3 µM) |

— ChEMBL document CHEMBL4000188, “Synthesis and antimicrobial evaluation of novel analogues of dehydroabietic acid prepared by CH-Activation” (Eur J Med Chem, 2017)
